Assay results: the supplement of paper PMC11127212

Key:
[1] = retention time on BEH HILIC column (20 min gradient, 0.4 mL/min); higher = later elution; details: LC: HILIC
Protocol: (§1)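 Reference standards (20-100 uM) were separated by HILIC UPLC (BEH HILIC, 45 °C): acidic pH 3.0 ammonium formate/formic acid for ESI+ and basic pH 9.0 ammonium acetate/ammonia for ESI-. They were analysed on a Synapt G2-Si traveling-wave IMS-QTOF with nitrogen drift gas (WH 30 V; WV 800 m/s in ESI+ and 1000 m/s in ESI-).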

[2] = collision cross section (TWIMS, N2) of ion [M-H]-; higher = larger gas-phase ion cross section; details: ionization: ESI negative; LC: HILIC, pH 9.0 ammonium acetate
Protocol: as §1

[3] = collision cross section (TWIMS, N2) of ion [M+H-H2O]+; higher = larger gas-phase ion cross section; details: ionization: ESI positive; LC: HILIC, pH 3.0 ammonium formate
Protocol: as §1, with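 “ESI-). CCS (TWCCSN2, Å2) was calibrated with Major Mix IMS/TOF and LockCCS leucine enkephalin; inter-day RSD was <1%.” for “ESI-).”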

[4] = collision cross section (TWIMS, N2) of ion [M+H]+; higher = larger gas-phase ion cross section; details: ionization: ESI positive; LC: HILIC, pH 3.0 ammonium formate
Protocol: as §1

[5] = collision cross section (TWIMS, N2) of ion [M+Na]+; higher = larger gas-phase ion cross section; details: ionization: ESI positive; LC: HILIC, pH 3.0 ammonium formate
Protocol: as §1, with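 “ESI-). CCS (TWCCSN2, Å2) was calibrated with Major Mix IMS/TOF and LockCCS leucine enkephalin; inter-day RSD was <1%.” for “ESI-).”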

[6] = ionization: ESI negative, pH 9.0 ammonium acetate
[7] = ionization: ESI positive, pH 3.0 ammonium formate

retention time on BEH HILIC column [1, 6] [min]	retention time on BEH HILIC column [1, 7] [min]	collision cross section [2] [Å²]	collision cross section [3] [Å²]	collision cross section [4] [Å²]	collision cross section [5] [Å²]	Structure (SMILES)
0.67	0.73	123.01	124.91			O=C(O)c1ccc(O)cc1 [4-hydroxybenzoic acid]
3.4	2.31	159.47		155.86	166.42	OC[C@H]1O[C@@H](n2cnc3c(O)ncnc32)[C@H](O)[C@@H]1O [Inosine]
7.23	7.22	116.46		123.7	130.65	O=C(O)[C@@H]1CCCN1 [L-proline]
1.98	2.79	120.56		120.17	129.07	CN1CC(=O)NC1=N [Creatinine]
6.8	6.59	132.57		131.48	135.16	CSCC[C@H](N)C(=O)O [L-methionine]
11.4	6.7	187.54		196.77	201.44	Nc1nc(=O)c2nc(CNc3ccc(C(=O)N[C@@H](CCC(=O)O)C(=O)O)cc3)cnc2[nH]1 [Folic acid]
0.99	0.99	120.54	124.18			C/C(=C/C(=O)O)C(=O)O [Citraconic acid]
12.7	2.56	128.56	130.12			O=C(O)c1cccnc1C(=O)O [Quinolinic acid]
2.74	2.74	121.16		122.92	128.31	O=C(O)c1cccnc1 [Nicotinic acid]
2.21	2.16	139.07		138.49	146.37	O=C(O)CNC(=O)c1ccccc1 [Hippuric acid]
0.73	0.77	188.17			190.13	CCCCCCCCCCCCCCCCCCC(=O)O [Nonadecanoic acid]
0.9	0.77	135.55			134.35	CCCCCCC(=O)O [Heptanoic acid]
1.8	1.56	126.16			136.32	NC(=O)NC1NC(=O)NC1=O (stereo unspecified) [Allantoin]
1.41	1.38	126.41	126.57			O=C(O)c1cc(O)ccc1O [Gentisic acid]
0.9	1.25	129.59			130.13	CCCCCC(=O)O [Caproic acid]
7.95	6.68	171.3			175.45	OC[C@H]1O[C@H](O[C@H]2[C@H](O)[C@H](O)[C@@H](O)O[C@@H]2CO)[C@H](O)[C@@H](O)[C@@H]1O [D-maltose]

retention time on BEH HILIC column [1, 6] [min]	retention time on BEH HILIC column [1, 7] [min]	collision cross section [2] [Å²]	collision cross section [3] [Å²]	collision cross section [4] [Å²]	collision cross section [5] [Å²]	Structure (SMILES)
1.12	0.9	126.47	121.78			Nc1c(O)cccc1C(=O)O [3-hydroxyanthranilic acid]
6.79	6.67	141.65		141.09	143.2	N[C@@H](Cc1ccc(O)cc1)C(=O)O [L-tyrosine]
11.7	11.8	154.88		151.65	152.28	NCCC(=O)N[C@@H](Cc1cnc[nH]1)C(=O)O [Carnosine]
11.9	8.86	146.38			151.18	O=C(CO)[C@@H](O)[C@H](O)[C@H](O)COP(=O)(O)O [Fructose 6-phospahte]
1.58	1.71	121.34			131.78	OC[C@H]1OC(O)[C@H](O)[C@@H]1O (stereo partly drawn) [D-ribose]
0.75	0.75	151.28			143.53	CCCCCCCCCC(=O)O [Capric acid]
6.9	6.92	172.34		171.22	178.55	Nc1nc2c(ncn2[C@@H]2O[C@@H]3COP(=O)(O)O[C@H]3[C@H]2O)c(=O)[nH]1 [cGMP]
0.73	0.75	184.42			186.65	CCCCCCCCCCCCCCCCCC(=O)O [Stearic acid]
2.71	2.59	126.29		125.13	134.02	Nc1ncnc2nc[nH]c12 [Adenine]
	0.82		114.1			O=C(O)/C=C\C(=O)O [Maleic acid]
0.67	0.88	129.47			138.25	CC(=O)Oc1ccc(O)cc1 [4-hydroxyphenyl acetate]
0.77	0.72	170.14			179.96	CCCCCCCCCCCCCCCC(=O)O [Palmitic acid]
0.73	0.79	193.88			198.31	CCCCCCCCCCCCCCCCCCCC(=O)O [Arachidic acid]
	7.16			125.33	132.22	C[N+](C)(C)CC(=O)O [Betaine]
7.33	6.42	172.39			171.29	OC[C@H]1O[C@@H](O[C@H]2[C@H](O)[C@@H](O)[C@@H](O)O[C@@H]2CO)[C@H](O)[C@@H](O)[C@H]1O [D-lactose]
0.95	0.75	139.96			151.23	CCOC(=O)CC(C)C(=O)OCC (stereo unspecified) [Diethyl methylsuccinate]
